{"source": "patent US20130237424A1", "about": "(Cosmo Oil Co., LTD., priority 2010, published 2013)", "origin": "cited, not measured here", "system": "plants", "conditions": "given with being dissolved in a solution"}
{"smiles": "NCC(=O)CCC(=O)O", "note": "[5-aminolevulinic acid]", "values": [{"measurement": "duration of growth promoting effect", "result": "about 2 weeks"}]}
